Assay results as given in patent US4008274A, “Certain salicylanilides” (Yoshitomi Pharmaceutical Industries, Ltd., priority 1973, dated 1977).
≈ marks a conversion by molar mass, not a printed value. Values belong to the molecule of their own block, whether it stands above or below them.

Assays:
[1] = system: Staphylococcus aureus FDA 2099; assay: Antibacterial Activity (agar dilution method), Staphylococcus aureus FDA 2099; assay type: cell-based; conditions: FDA2099, 48 h; Staphylococcus aureus FDA 2099, nutrient agar, 37° C, 2 days; read-out: minimal inhibitory concentration (MIC)
Procedure: (§1) The minimal inhibitory concentration (MIC; mcg/ml) of the test compounds determined by the agar dilution method on the nutrient agar medium is shown in TABLE III. The procedure is as follows: The test compound was mixed with the nutrient agar medium and the medium was allowed to coagulate. A solution containing Staphylococcus aureus FDA 2099 or Bacillus subtilis PCI 219 was inoculated into the medium and cultivated at 37° C for 2 days.

Spirogyra = assay: Algicidal Activity; assay type: in vivo; design: key: 0: Brown algae on the bottom of the vessel. Destroyed and brown spiral chloroplasts (under a microscope).; 10: Vigorous algae growth. Vivid green spiral chloroplasts (under a microscope); conditions: 48 hours, 20°±2° C
Procedure: Tap water (4 liters) was poured into a glass vessel (15 × 20 × 21 cm). The vessel was kept in a greenhouse maintained at 20°±2° C. Then 1 ml (or 5 ml) of a solution prepared by dissolving 0.400 g of the test compound in 100 ml of 4:1 ethanol-acetone mixture was dropped into the vessel to attain the concentration of 1 ppm (or 5 ppm). As the control run, 1 ml (or 5 ml) of the solvent was dropped into the vessel. About 5 g of wet Spirogyra was put in the vessel. Clean air was introduced at a rate of 150 ml/min for 48 hours.
The algicidal acticity was evaluated by the following criteria:
0: Brown algae on the bottom of the vessel. Destroyed and brown spiral chloroplasts (under a microscope).
10: Vigorous algae growth. Vivid green spiral chloroplasts (under a microscope).

barnacles = assay: Barnacle Killing Activity; assay type: in vivo; conditions: after 48 hours, out of 30 living barnacles, 20°±2° C
Procedure: Seawater (4 liters) was poured into a glass vessel (15 × 20 × 21 cm). The water temperature was maintained at 20°±2° C. Clean air was introduced at a rate of 150 ml/min throughout the experiment. Then 1 ml (or 5 ml) of a solution prepared by dissolving 0.400 g of the test compound in 100 ml of 4:1 ethanol-acetone mixture was dropped into the vessel to attain the concentration of 1 ppm (or 5 ppm). As the control run, 1 ml (or 5 ml) of the solvent was dropped into the vessel. Of scores of barnacles sticking to a stone obtained from the sea-shore 30 living barnacles were selected at randum, the rest of the barnacles on the stone being neglected for the experiment. Such stone was put in the vessel. After 48 hours, the number of dead barnacles was counted.

[2] = system: Bacillus subtilis PCI 219; assay: Antibacterial Activity (agar dilution method), Bacillus subtilis PCI 219; assay type: cell-based; conditions: PCI219, 48 h; Bacillus subtilis PCI 219, nutrient agar, 37° C, 2 days; read-out: minimal inhibitory concentration (MIC)
Procedure: as §1

[3] = Oral toxicity (Litchfield-Wilcoxon method); conditions: mouse, in vivo, dd-strain female mice, 25% suspension in water containing 0.5% carboxymethylcellulose
Procedure: Oral LD50 values were determined in dd-strain female mice according to the conventional Litchfield-Wilcoxon method. The test compound was administered as a 25% suspension in water containing 0.5% carboxymethylcellulose.

Percutaneous toxicity = conditions: mouse, in vivo, topical or ocular; dd-strain female mice, 10% solution in acetone on shaved backs
Procedure: Percutaneous LD50 values were determined in dd-strain female mice by applying a 10% solution of the test compound in acetone on the shaved backs.

SMILES: Cc1ccc(O)c(C(=O)Nc2ccc([N+](=O)[O-])cc2C)c1 [Test Compound 1, 2',5-dimethyl-4'-nitrosalicylanilide]
MIC [1]: 5 mg/L (≈ 17.5 µM)
algicidal activity score (Spirogyra; 1 ppm): 0
algicidal activity score (Spirogyra; 5 ppm): 0
number of dead barnacles (barnacles; 1 ppm): 10
number of dead barnacles (barnacles; 5 ppm): 30
MIC [2]: 2 mg/L (≈ 6.99 µM)

SMILES: Cc1ccc(O)c(C(=O)Nc2ccc([N+](=O)[O-])c(C)c2)c1 [Test Compound 2, 3',5-Dimethyl-4'-nitrosalicylanilide]
algicidal activity score (Spirogyra; 1 ppm): 0
algicidal activity score (Spirogyra; 5 ppm): 0
number of dead barnacles (barnacles; 1 ppm): 2
number of dead barnacles (barnacles; 5 ppm): 30

SMILES: Cc1cc([N+](=O)[O-])ccc1NC(=O)c1cc(C(C)(C)C)ccc1O [Test Compound 10, 5-Tert-butyl-2'-methyl-4'-nitrosalicylanilide]
LD50 [3]: > 10000 mg/kg
LD50 (Percutaneous toxicity): > 5000 mg/kg

SMILES: Cc1cccc(NC(=O)c2cc(C(C)(C)C)ccc2O)c1C [Test Compound 16, 5-Tert-butyl-2',3'-dimethylsalicylanilide]
LD50 [3]: > 10000 mg/kg
LD50 (Percutaneous toxicity): > 5000 mg/kg

SMILES: O=C(Nc1ccc(Br)cc1)c1cc(Br)cc(Br)c1O [Tribromsalan, 3,4',5-Tribromosalicylanilide, reference compound]
LD50 [3]: 124 mg/kg
LD50 (Percutaneous toxicity): > 2000 mg/kg

MIC [1]: 10 mg/L (≈ 34.9 µM)
MIC [2]: 10 mg/L (≈ 34.9 µM)
SMILES: Cc1ccc(O)c(C(=O)Nc2cc([N+](=O)[O-])ccc2C)c1 [compound 3]
number of dead barnacles (barnacles; 1 ppm): 3
number of dead barnacles (barnacles; 5 ppm): 30

SMILES: Cc1ccc(O)c(C(=O)Nc2ccc([N+](=O)[O-])cc2)c1 [compound 4]
algicidal activity score (Spirogyra; 1 ppm): 10
algicidal activity score (Spirogyra; 5 ppm): 0

SMILES: CSc1cccc(NC(=O)c2cc(C)ccc2O)c1 [compound 5]
number of dead barnacles (barnacles; 1 ppm): 2
number of dead barnacles (barnacles; 5 ppm): 18

SMILES: COc1cc([N+](=O)[O-])ccc1NC(=O)c1cc(C)ccc1O [compound 6]
number of dead barnacles (barnacles; 1 ppm): 2
number of dead barnacles (barnacles; 5 ppm): 20

SMILES: Cc1cc([N+](=O)[O-])ccc1NC(=O)c1cc(C(C)C)ccc1O [compound 7]
MIC [1]: 5 mg/L (≈ 15.9 µM)
algicidal activity score (Spirogyra; 1 ppm): 0
algicidal activity score (Spirogyra; 5 ppm): 0
number of dead barnacles (barnacles; 1 ppm): 14
number of dead barnacles (barnacles; 5 ppm): 30
MIC [2]: 5 mg/L (≈ 15.9 µM)

SMILES: Cc1ccc([N+](=O)[O-])cc1NC(=O)c1cc(C(C)C)ccc1O [compound 8]
MIC [1]: 5 mg/L (≈ 15.9 µM)
algicidal activity score (Spirogyra; 1 ppm): 10
algicidal activity score (Spirogyra; 5 ppm): 0
number of dead barnacles (barnacles; 1 ppm): 16
number of dead barnacles (barnacles; 5 ppm): 30
MIC [2]: 5 mg/L (≈ 15.9 µM)

SMILES: CC(C)c1ccc(O)c(C(=O)Nc2ccc([N+](=O)[O-])cc2)c1 [compound 9]
MIC [1]: 5 mg/L (≈ 16.6 µM)
algicidal activity score (Spirogyra; 1 ppm): 0
algicidal activity score (Spirogyra; 5 ppm): 0
number of dead barnacles (barnacles; 1 ppm): 20
number of dead barnacles (barnacles; 5 ppm): 30
MIC [2]: 5 mg/L (≈ 16.6 µM)

SMILES: Cc1cc([N+](=O)[O-])ccc1NC(=O)c1cc(C(C)(C)C)ccc1O [compound 10]
MIC [1]: 1 mg/L (≈ 3.05 µM)
algicidal activity score (Spirogyra; 1 ppm): 0
algicidal activity score (Spirogyra; 5 ppm): 0
number of dead barnacles (barnacles; 1 ppm): 30
number of dead barnacles (barnacles; 5 ppm): 30
MIC [2]: 0.5 mg/L (≈ 1.52 µM)

SMILES: Cc1cc(NC(=O)c2cc(C(C)(C)C)ccc2O)ccc1[N+](=O)[O-] [compound 11]
MIC [1]: 1 mg/L (≈ 3.05 µM)
algicidal activity score (Spirogyra; 1 ppm): 10
algicidal activity score (Spirogyra; 5 ppm): 0
number of dead barnacles (barnacles; 1 ppm): 30
number of dead barnacles (barnacles; 5 ppm): 30
MIC [2]: 1 mg/L (≈ 3.05 µM)

SMILES: Cc1ccc([N+](=O)[O-])cc1NC(=O)c1cc(C(C)(C)C)ccc1O [compound 12]
MIC [1]: 2 mg/L (≈ 6.09 µM)
algicidal activity score (Spirogyra; 1 ppm): 10
algicidal activity score (Spirogyra; 5 ppm): 0
number of dead barnacles (barnacles; 1 ppm): 30
number of dead barnacles (barnacles; 5 ppm): 30
MIC [2]: 2 mg/L (≈ 6.09 µM)

MIC [1]: 2 mg/L (≈ 6.36 µM)
MIC [2]: 1 mg/L (≈ 3.18 µM)
SMILES: CC(C)(C)c1ccc(O)c(C(=O)Nc2ccc([N+](=O)[O-])cc2)c1 [compound 13]
number of dead barnacles (barnacles; 1 ppm): 22
number of dead barnacles (barnacles; 5 ppm): 30

SMILES: CSc1cccc(NC(=O)c2cc(C(C)(C)C)ccc2O)c1 [compound 14]
MIC [1]: 5 mg/L (≈ 15.9 µM)
algicidal activity score (Spirogyra; 1 ppm): 10
algicidal activity score (Spirogyra; 5 ppm): 0
number of dead barnacles (barnacles; 1 ppm): 3
number of dead barnacles (barnacles; 5 ppm): 30
MIC [2]: 5 mg/L (≈ 15.9 µM)

SMILES: COc1cc([N+](=O)[O-])ccc1NC(=O)c1cc(C(C)(C)C)ccc1O [compound 15]
number of dead barnacles (barnacles; 1 ppm): 9
number of dead barnacles (barnacles; 5 ppm): 30

SMILES: Cc1cccc(NC(=O)c2cc(C(C)(C)C)ccc2O)c1C [compound 16]
algicidal activity score (Spirogyra; 1 ppm): 10
algicidal activity score (Spirogyra; 5 ppm): 0
number of dead barnacles (barnacles; 1 ppm): 4
number of dead barnacles (barnacles; 5 ppm): 30

SMILES: COc1ccc(NC(=O)c2cc(C(C)(C)C)ccc2O)cc1 [compound 17]
algicidal activity score (Spirogyra; 1 ppm): 10
algicidal activity score (Spirogyra; 5 ppm): 0

SMILES: CCC(C)(C)c1ccc(O)c(C(=O)Nc2ccc([N+](=O)[O-])cc2C)c1 [compound 18]
MIC [1]: 0.5 mg/L (≈ 1.46 µM)
algicidal activity score (Spirogyra; 1 ppm): 0
algicidal activity score (Spirogyra; 5 ppm): 0
number of dead barnacles (barnacles; 1 ppm): 30
number of dead barnacles (barnacles; 5 ppm): 30
MIC [2]: 0.5 mg/L (≈ 1.46 µM)

SMILES: CCC(C)(C)c1ccc(O)c(C(=O)Nc2ccc([N+](=O)[O-])c(C)c2)c1 [compound 19]
MIC [1]: 0.5 mg/L (≈ 1.46 µM)
algicidal activity score (Spirogyra; 1 ppm): 0
algicidal activity score (Spirogyra; 5 ppm): 0
number of dead barnacles (barnacles; 1 ppm): 2
number of dead barnacles (barnacles; 5 ppm): 30
MIC [2]: 0.5 mg/L (≈ 1.46 µM)

SMILES: CCC(C)(C)c1ccc(O)c(C(=O)Nc2cc([N+](=O)[O-])ccc2C)c1 [compound 20]
MIC [1]: 1 mg/L (≈ 2.92 µM)
algicidal activity score (Spirogyra; 1 ppm): 0
algicidal activity score (Spirogyra; 5 ppm): 0
number of dead barnacles (barnacles; 1 ppm): 30
number of dead barnacles (barnacles; 5 ppm): 30
MIC [2]: 1 mg/L (≈ 2.92 µM)

SMILES: CCC(C)(C)c1ccc(O)c(C(=O)Nc2ccc([N+](=O)[O-])cc2)c1 [compound 21]
MIC [1]: 1 mg/L (≈ 3.05 µM)
algicidal activity score (Spirogyra; 1 ppm): 0
algicidal activity score (Spirogyra; 5 ppm): 0
number of dead barnacles (barnacles; 1 ppm): 25
number of dead barnacles (barnacles; 5 ppm): 30
MIC [2]: 1 mg/L (≈ 3.05 µM)

SMILES: CCC(C)(C)c1ccc(O)c(C(=O)Nc2cccc(SC)c2)c1 [compound 22]
algicidal activity score (Spirogyra; 1 ppm): 10
algicidal activity score (Spirogyra; 5 ppm): 0

SMILES: CCC(C)(C)c1ccc(O)c(C(=O)Nc2ccc([N+](=O)[O-])cc2OC)c1 [compound 23]
MIC [1]: 5 mg/L (≈ 14 µM)
algicidal activity score (Spirogyra; 1 ppm): 0
algicidal activity score (Spirogyra; 5 ppm): 0
number of dead barnacles (barnacles; 1 ppm): 6
number of dead barnacles (barnacles; 5 ppm): 30
MIC [2]: 5 mg/L (≈ 14 µM)

MIC [1]: 1 mg/L (≈ 2.6 µM)
MIC [2]: 1 mg/L (≈ 2.6 µM)
SMILES: Cc1cc([N+](=O)[O-])ccc1NC(=O)c1cc(C(C)(C)CC(C)(C)C)ccc1O [compound 24]
